From patent US20150216182A1, “COMPOSITIONS AND METHODS OF THE ATTRACTION AND REPULSION OF INSECTS” (Olfactor Laboratories, Inc., priority 2012, published 2015)
Structures can show the parent of a compound that is named as a salt. Where two headings read alike, the source gives them in different places.

What was measured:
larvae = assay: larvicidal activity assay; type: in vivo; settings: for pest or weed control at 100 ppm: read-out: % Lethality at 100 ppm; for pest or weed control at 0.25 %: read-out: % Lethality with 0.25% compound conc.
Method: A 6-well plate (Corning Life Sciences, Tewksbury, Mass.) is used to test a compound's larvicidal activity. […] After a 24 hour exposure, the number of dead larvae are counted and recorded.
The results are presented in Table 17 as % lethality (the number of dead larvae divided by the total number of larvae).

[1] = test system: bed bugs (Cimex lectularius); assay: bed bug repellency assay; type: in vivo; settings: compound or combination on filter paper harborage, ten bed bugs
Method: Compounds and combinations of compounds of the present invention were assayed for their ability to repel bed bugs (Cimex lectularius) using a bed bug repellency assay. This assay takes advantage of the bed bug's natural tendency to seek harborage. Two petri dishes were obtained and the inner areas of each were sanded down (leaving the perimeter smooth.) Talc was applied on the perimeter and on the inside walls of the petri dishes with a small paint brush to prevent bed bugs from escaping. A cut off top portion of a solo bathroom cup was placed upside down in the center of one petri dish. A large plastic secondary container was gathered and a paper towel was laid down inside the bottom. The petri dish was then placed inside and ten bed bugs were placed inside the cut off portion of the solo cup. Next, two pieces of filter paper were cut down the middle to yield 4 equally sized halves. 3 pieces were placed inside a glass dish ([…]) and the remaining piece was placed in a separate dish. All 4 pieces were folded down the middle to create a “tent” or “harborage” when laid such that the folded crease faced up. 100 microliters of isopropyl alcohol was pipetted into 3 pieces of filter paper (all housed in the first glass dish.) In a separate 4 ml vial, 90 microliters of isopropyl alcohol was combined and vortexed with 10 microliters of the compound or compound combination being tested. 100 microliters of this solution [comprising a total of 100 mg of compound(s)] was pipetted onto the filter paper in the separate dish. All filter papers were then allowed to dry. Once dry, experiments were conducted first with two filter paper halves comprising only the isopropyl alcohol (control experiment) and then with the remaining filter paper halves [one with only isopropyl alcohol and one comprising the test compound(s).] Filter paper halves were placed on opposing sides of experimental petri dishes and bed bugs were allowed to move freely within the dishes for 5 minutes. Movement of bed bugs beneath each filter paper tent was recorded. […] In the Table, “Rep” refers to repellency and “Cmpd” refers to compound.

cpA neurons [2] = assay: extracellular single-sensillum electrophysiology: inhibition of CO2-responsive (cpA) neuronal activity; settings: for Class: Table 10, single compounds, percent reduction in cpA activity compared to baseline; for Class (inhibitor class of the individual component): Inh = inhibitor
female mosquitoes = assay: whole plant or invertebrate; settings: 2 h; for mortality at 200 µg/mL: read-out: % mortality with 0.2 mg/ml; for mortality at 2000 µg/mL: read-out: % mortality with 2 mg/ml
cpA neurons [3] = assay: extracellular single-sensillum electrophysiology: activation of cpA neuronal activity; settings: for Class: Table 6, single compounds, increase over baseline cpA neuronal activity; for Comp A Class / Comp B Class: Table 9; for Comp A Class: component A tested individually; for Comp B Class: component B tested individually; for Class B (activator class of the individual component): Table 15, single component alone, Mod Actv; for Class (activator class of the individual component): Actv = activator
[4] = 0.25% compound, 24 hour exposure, dead larvae / total larvae
[5] = 100 ppm compound, 24 hour exposure, dead larvae / total larvae
[6] = Table 13, single component alone
[7] = Table 16, single component alone

Compound | % Lethality with 0.25% compound conc. (larvae; [4]) | % Lethality at 100 ppm (larvae; [5]) | % Rep (bed bug repellency) [1] | Class (cpA neurons [2]) | Class (inhibitor class of the individual component) (cpA neurons [2]; [6]) | Class (inhibitor class of the individual component) (cpA neurons [2]; [7]) | inhibitor class of single compound (cpA neurons [2]) | pest or weed control at 100 ppm (larvae; 24 h) | pest or weed control at 0.25 % (larvae; 24 h) | mortality at 200 µg/mL (female mosquitoes) | mortality at 2000 µg/mL (female mosquitoes) | Class (cpA neurons [3]) | pest or weed control at 0.25 % (larvae; [4]) | pest or weed control at 100 ppm (larvae; [5]) | Comp A Class (cpA neurons [3]) | Comp B Class (cpA neurons [3]) | Class B (activator class of the individual component) (cpA neurons [3]) | Class (activator class of the individual component) (cpA neurons [3]; [6]) | Class (activator class of the individual component) (cpA neurons [3]; [7]) | activator class of single compound (cpA neurons [3]; single compound)
2-methoxy-3(5or6)isopropylpyrazine [OLI0072] | 100% lethal | 0% lethal | 100% | Moderate Inhibitor (moderate inhibitors (reducing activity by 40-60%)) | Mod | Mod | moderate inhibitor (40-60% reduction in neuronal activity as compared to baseline activity of the neuron) |  |  |  |  |  |  |  |  |  |  |  |  | 
CCCCOC=O [OLI0007, butyl formate] |  |  | 6% |  |  |  |  | 0% | 0% | 0% | 0% | Strong Activator (strong activators yield an increase in activity that is >60 spk/sec over baseline neuronal activity) |  |  |  |  |  |  |  | 
CCOC(=O)c1ccco1 [OLI0009, ethyl 2-furoate] |  |  | 41% |  |  |  |  |  |  | 0% | 0% | Strong Activator (strong activators yield an increase in activity that is >60 spk/sec over baseline neuronal activity) | 100% | 0% |  |  |  |  |  | 
CCOC(=O)C(C)O (stereo not drawn) [OLI0010, ethyllactate] |  |  | 37% |  |  |  |  |  |  | 0% | 0% | Strong Activator (strong activators yield an increase in activity that is >60 spk/sec over baseline neuronal activity) | 0% | 0% |  |  |  |  |  | 
COc1ccccc1O [OLI0012, guaiacol] |  |  | 100% |  |  |  |  |  |  | 0% | 0% | Strong Activator (strong activators yield an increase in activity that is >60 spk/sec over baseline neuronal activity) | 100% | 0% |  |  |  |  |  | 
Cc1cnc(C)c(C)n1 [OLI0014, 2,3,5-trimethylpyrazine] |  |  | 59% |  |  |  |  |  |  | 0% | 0% | Moderate Activator (Moderate activators yield an increase in neuronal activity that is between 40 and 60 spk/sec over baseline neuronal activity) | 21% | 0% | Mod | Mod | Mod |  |  | 
Cc1nccnc1C [OLI0015, 2,3-dimethylpyrazine] |  |  | 77% |  |  |  |  |  |  | 0% | 0% | Moderate Activator (Moderate activators yield an increase in neuronal activity that is between 40 and 60 spk/sec over baseline neuronal activity) | 0% | 0% | Mod | Mod | Mod | Mod | Mod | moderate activator (spike rate of 40-60 spk/sec over the baseline activity of the neuron)
CC(=O)c1ccc(C)o1 [OLI0016, 2-acetyl-5-methyl furan] |  |  | 86% |  |  |  |  |  |  | 0% | 0% | Moderate Activator (Moderate activators yield an increase in neuronal activity that is between 40 and 60 spk/sec over baseline neuronal activity) | 100% | 0% | Mod | Mod | Mod |  |  | 
CC(=O)c1ccco1 [OLI0017, 2-furyl methyl ketone] |  |  | 60% |  |  |  |  |  |  | 0% | 0% | Moderate Activator (Moderate activators yield an increase in neuronal activity that is between 40 and 60 spk/sec over baseline neuronal activity) | 100% | 50% | Mod |  | Mod |  |  | 
C=CCOC(=O)CCC [OLI0019, allyl butyrate] |  |  | 8% |  |  |  |  |  |  | 0% | 0% | Moderate Activator (Moderate activators yield an increase in neuronal activity that is between 40 and 60 spk/sec over baseline neuronal activity) | 100% | 0% |  | Mod | Mod |  |  | 
CCCC(O)CC(=O)OCC (stereo not drawn) [OLI0021, ethyl 3-hydroxyhexanoate] |  |  | 100% |  |  |  |  |  |  | 0% | 75% | Moderate Activator (Moderate activators yield an increase in neuronal activity that is between 40 and 60 spk/sec over baseline neuronal activity) | 0% | 0% | Mod | Mod | Mod |  |  | 
c1ccc2[nH]ccc2c1 [OLI0052, indole] |  |  | 100% |  |  |  |  | 100% | 100% | 0% | 100% | Mild Activator (mild activators yield an increase in neuronal activity that is between 20 and 40 spk/sec over baseline neuronal activity) |  |  |  |  |  |  |  | 
O=C/C=C/c1ccccc1 [OLI0065, trans-cinnamaldehyde] |  |  | 100% |  |  |  |  | 0% | 100% | 0% | 0% | Mild Activator (mild activators yield an increase in neuronal activity that is between 20 and 40 spk/sec over baseline neuronal activity) |  |  |  |  |  |  |  | 
CCCCC=O [OLI0066, valeraldehyde] |  |  | 33% |  |  |  |  |  |  | 0% | 0% | Mild Activator (mild activators yield an increase in neuronal activity that is between 20 and 40 spk/sec over baseline neuronal activity) | 35% | 0% |  |  |  |  |  | 
CCc1ncc(C)nc1CC [OLI0067, 2,3-diethyl-5-methylpyrazine] |  |  | 100% | Strong Inhibitor (strong inhibitors (reducing activity >60%)) |  |  |  |  |  | 0% | 0% |  | 100% | 0% |  |  |  |  |  | 
CCc1nccnc1CC [OLI0068, 2,3-diethylpyrazine] |  |  | 24% | Strong Inhibitor (strong inhibitors (reducing activity >60%)) |  | Strng |  |  |  | 0% | 0% |  | 100% | 0% |  |  |  |  |  | 
CCc1nccnc1C [OLI0069, 2-ethyl-3-methylpyrazine] |  |  | 10% | Strong Inhibitor (strong inhibitors (reducing activity >60%)) |  |  |  |  |  | 0% | 0% |  | 100% | 0% |  |  |  |  |  | 
CCc1nccnc1OC [OLI0071, 2-ethyl-3-methoxypyrazine] |  |  | 29% | Moderate Inhibitor (moderate inhibitors (reducing activity by 40-60%)) | Mod | Mod | moderate inhibitor (40-60% reduction in neuronal activity as compared to baseline activity of the neuron) |  |  | 0% | 0% |  | 100% | 0% |  |  |  |  |  | 
CCCCCCC/C=C/C=O [OLI0077, trans-2-decenal] |  |  | 72% | Moderate Inhibitor (moderate inhibitors (reducing activity by 40-60%)) | Mod |  |  |  |  |  |  |  |  |  |  |  |  |  |  | 
